This note sets out measurements from patent US5686460A, “Carbocyclic diarylmethylene derivatives, processes for their preparation and their uses in therapeutics” (Laboratoires UPSA, priority 1996, dated 1997).

For test [1], the target named is T1, COX-2 (Ovis aries, UniProt P79208).
T1 construct: purified enzyme from ewe placenta; from tissue; host or cells: ewe placenta
T1 sequence (P79208 17-603): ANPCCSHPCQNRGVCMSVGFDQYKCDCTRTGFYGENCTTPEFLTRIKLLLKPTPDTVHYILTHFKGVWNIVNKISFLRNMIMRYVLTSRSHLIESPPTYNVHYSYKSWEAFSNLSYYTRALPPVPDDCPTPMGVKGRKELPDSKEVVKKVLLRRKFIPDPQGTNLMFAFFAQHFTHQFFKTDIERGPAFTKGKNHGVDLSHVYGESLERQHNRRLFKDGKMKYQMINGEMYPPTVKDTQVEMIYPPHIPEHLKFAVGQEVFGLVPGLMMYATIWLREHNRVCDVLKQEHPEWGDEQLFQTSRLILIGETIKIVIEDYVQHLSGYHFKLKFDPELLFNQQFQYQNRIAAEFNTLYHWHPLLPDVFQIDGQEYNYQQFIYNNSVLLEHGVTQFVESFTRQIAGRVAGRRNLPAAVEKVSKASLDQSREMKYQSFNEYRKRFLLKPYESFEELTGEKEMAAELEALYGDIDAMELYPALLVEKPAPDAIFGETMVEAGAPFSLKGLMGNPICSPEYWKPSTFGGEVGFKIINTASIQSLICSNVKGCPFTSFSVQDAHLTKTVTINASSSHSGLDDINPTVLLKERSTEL
Description: Inhibition of the COX-2 enzymatic activity (PGE2 determined by EIA). Format: biochemical, ewe. The settings on record: arachidonic acid 4 μM, mean±standard deviations of 4 determinations; for inhibition at 10 µM: 10^-5 M; for inhibition at 0.1 µM: 10^-7 M. On the procedure:
(§1) Inhibition of the COX-1 and COX-2 enzymatic activities The molecule studied is preincubated for 10 minutes at 25° C. with 2 U of COX-1 (purified enzyme from ram seminal vesicles) or 1 U of COX-2 (purified enzyme from ewe placenta). Arachidonic acid (6 μM for COX-1, 4 μM for COX-2) is added to the reaction medium and incubation is carried out for 5 minutes at 25° C. When incubation has ended, the enzymatic reaction is stopped by the addition of 1N HCl and the PGE2 produced is determined by EIA. The results are expressed as the percentage inhibition of the COX-1 and COX-2 enzymatic activities and correspond to mean±standard deviations of the average of 4 determinations.

Test [2] relates to carrageenin edema. Kind of test: carrageenin edema test (anti-inflammatory activity). The class given is in vivo. The settings on record: rat, oral, 100 mg/kg, 3 hours, n=6 animals per dose. On the procedure: (§2) The anti-inflammatory activity of the compounds of the Examples was evaluated by the carrageenin edema method and the analgesic activity was evaluated by the kaolin arthritis method.
Anti-inflammatory activity:
The anti-inflammatory activity is evaluated in the rat by the carrageenin edema test. The product is administered orally at a rate of 2.5 ml/100 g (n=6 animals per dose) 2 h 30 rain after oral hyperhydration (2.5 ml/100 g). One hour after administration of the product, the edema is induced by the plantar subcutaneous injection of 2% aqueous carrageenin solution. The percentage inhibition of the volume of the edema is calculated after 3 hours by measurement of the volume of the paw with a mercury plethysmograph.
In general terms: The carrageenan paw model is a standard test of acute inflammation.

In test [3] the test system is kaolin arthritis. Kind of test: kaolin arthritis test (analgesic activity). The class given is in vivo. Particulars: rat, oral, 100 mg/kg, 5 h 30 after administration, n=10 animals per dose. On the procedure:
as §2
The analgesic activity is evaluated in the rat by the kaolin arthritis test. Thirty minutes after the intra-articular administration of 10% aqueous kaolin suspension, the product is administered orally at a rate of 1 ml/100 g (n=10 animals per dose). The percentage inhibition of the animal's pain response (grading of the gait) is calculated 5 h 30 rain after administration of the product.

For test [4], the system named is COX-1. Kind of test: Inhibition of the COX-1 enzymatic activity (PGE2 determined by EIA). The class given is biochemical, ram. Particulars: 10^-5 M; arachidonic acid 6 μM; mean±standard deviations of 4 determinations. On the procedure: as §1

SMILES strings stand for the structures.

For `CS(=O)(=O)c1ccc(C(=C2CCCC2)c2ccc(F)cc2)cc1` [Example 3, 4-[(Cyclopentylidene)(4-fluorophenyl)methyl]methylsulfonylbenzene], in test [1], the inhibition (as a rule, the change of the read-out against control, counted positive when it falls) at 10 µM stood at 66 ± 4% and the inhibition at 0.1 µM was determined as 21 ± 4%.

As to `CS(=O)(=O)c1ccc(C(=C2CCCC2)c2ccc(Cl)nc2)cc1` [Example 6, 2-Chloro-5-[(cyclopentylidene)(4-methylsulfonylphenyl)methyl]-pyridine], the “Anti-inflammatory activity % inhibition (of the volume of the edema)” value in test [2] is given as 45.8 ± 9.8%. For the same molecule, in test [3], the “Analgesic activity % inhibition (of the animal's pain response, grading of the gait)” value is 55.0 ± 15.7%. In test [1], this molecule came in with an inhibition at 10 µM of 65 ± 2% and an inhibition at 0.1 µM of 18 ± 8%. Moreover, the “% inhibition of the COX-1 activity” value in test [4] is listed as 0 ± 0%.

In test [1], `CS(=O)(=O)c1ccc(C(=C2C=CC=C2)c2ccc(F)cc2)cc1` [Example 12, 4-[(Cyclopenta-2,4-dienylidene)(4-fluorophenyl)methyl]methyl-sulfonylbenzene] yielded an inhibition at 10 µM of 57 ± 3%.
